ChEMBL document CHEMBL4052716, “Discovery and development of a novel class of phenoxyacetyl amides as highly potent TRPM8 agonists for use as cooling agents” (Bioorg Med Chem Lett, 2017)
pEC50: −log10 of the molar value.

Assays:
[1] = biological target: T1, Transient receptor potential cation channel subfamily M member 8 (Homo sapiens, UniProt Q7Z2W7); experiment: Agonist activity at human TRPM8 expressed in HEK293 cells assessed as increase in intracellular calcium level after 15 mins by Fluo-3-AM dye-based fluorescence assay; type: cell-based; conditions: for pEC50: read-out: EC50; for EC50: hek293
Target sequence in this assay (Q7Z2W7 whole entry): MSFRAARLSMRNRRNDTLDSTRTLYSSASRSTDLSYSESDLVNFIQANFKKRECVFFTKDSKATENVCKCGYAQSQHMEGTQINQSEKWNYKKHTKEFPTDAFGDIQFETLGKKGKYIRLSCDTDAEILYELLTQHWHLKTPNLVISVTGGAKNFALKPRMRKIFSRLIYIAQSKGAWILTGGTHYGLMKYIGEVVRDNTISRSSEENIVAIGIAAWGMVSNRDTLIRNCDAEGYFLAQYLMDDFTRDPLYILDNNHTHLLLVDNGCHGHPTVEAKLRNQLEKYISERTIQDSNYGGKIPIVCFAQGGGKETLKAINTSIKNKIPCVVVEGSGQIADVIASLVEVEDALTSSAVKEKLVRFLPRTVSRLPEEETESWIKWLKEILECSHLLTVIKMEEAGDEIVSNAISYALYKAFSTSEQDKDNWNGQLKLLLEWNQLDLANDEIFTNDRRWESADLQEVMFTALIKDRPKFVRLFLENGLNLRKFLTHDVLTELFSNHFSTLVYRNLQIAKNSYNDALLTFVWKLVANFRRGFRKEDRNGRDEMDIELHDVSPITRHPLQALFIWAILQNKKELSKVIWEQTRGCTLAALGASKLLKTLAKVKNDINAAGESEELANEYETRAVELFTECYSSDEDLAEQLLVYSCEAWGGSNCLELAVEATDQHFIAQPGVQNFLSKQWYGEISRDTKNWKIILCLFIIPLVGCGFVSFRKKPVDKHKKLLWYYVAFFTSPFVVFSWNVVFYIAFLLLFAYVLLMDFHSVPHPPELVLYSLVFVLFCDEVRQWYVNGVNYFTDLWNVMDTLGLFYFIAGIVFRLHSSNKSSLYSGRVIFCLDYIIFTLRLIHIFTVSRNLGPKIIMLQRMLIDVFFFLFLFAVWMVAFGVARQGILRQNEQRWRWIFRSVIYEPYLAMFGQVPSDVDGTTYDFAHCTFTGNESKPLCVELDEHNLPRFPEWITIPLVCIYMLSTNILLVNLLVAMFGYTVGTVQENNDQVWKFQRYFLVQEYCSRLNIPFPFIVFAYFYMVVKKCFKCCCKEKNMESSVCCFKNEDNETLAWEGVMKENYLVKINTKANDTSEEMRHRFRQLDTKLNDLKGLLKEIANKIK

[2] = biological target: T1, Transient receptor potential cation channel subfamily M member 8; experiment: Potency index, ratio of WS-3 EC50 to compound EC50 for human TRPM8 receptor
Target sequence in this assay (Q7Z2W7 whole entry, looked up): as the sequence (Q7Z2W7 whole entry) above

Homo sapiens = experiment: In vivo agonist activity at human TRPM8 in trained human subjects assessed as concentration required to deliver cooling sensation equivalent to 45 uM WS-3 by measuring cooling intensity; type: functional

pEC50 [1] | Ratio EC50 [2] | EC50 [1] | Structure (SMILES) | Activity (Homo sapiens)
4.60 | 0.1 |  | Cc1ccc(OCC(=O)NCc2cccs2)cc1 | 
 |  | Not Active | CCN(Cc1cccs1)C(=O)C[C@@H](O)c1ccccc1 | 
5.70 | 2 |  | CCC(C)N(Cc1cccs1)C(=O)COc1ccc(C)cc1 (stereo unspecified) | 
6.70 | 25 |  | Cc1ccc(OCC(=O)N(Cc2cccs2)c2ccccn2)cc1 | 15 µM
8.10 | 577 |  | Cc1ccc(OCC(=O)N(Cc2cccs2)C2CC2)cc1 | 5 µM
6.40 | 10 |  | CCN(Cc1cccs1)C(=O)COc1ccc(C(C)C)cc1 | 
6.72 | 18 |  | CCN(Cc1cccs1)C(=O)COc1ccccc1C | 
7.01 | 42 |  | CCN(Cc1cccs1)C(=O)COc1cccc(C)c1 | 5 µM
8.70 | 2340 |  | CCN(Cc1cccs1)C(=O)/C=C/c1ccc(C)cc1 | 3 µM
11.70 | > 1e+06 |  | O=C(/C=C/c1ccc2c(c1)OCO2)N(Cc1cccs1)c1ccn[nH]1 | 
9.15 | 6830 |  | CCN(Cc1cccs1)C(=O)/C=C/c1ccc2c(c1)OCO2 | 
6.92 | 32 |  | CCN(Cc1cccs1)C(=O)COc1ccc(OC)cc1 | 15 µM
6.05 | 4 |  | CCN(Cc1cccs1)C(=O)C(C)Oc1ccc(C)cc1 (stereo unspecified) | 
4.51 | 0.1 |  | CCN(Cc1c[nH]nn1)C(=O)COc1ccc(C)cc1 | 
4.66 | 0.2 |  | CCN(Cc1cc[nH]c1)C(=O)COc1ccc(C)cc1 | 
5.51 | 2 |  | CCN(Cc1nccs1)C(=O)COc1ccc(C)cc1 | 
8.10 | 650 |  | CCN(Cc1cccs1)C(=O)COc1ccc(C)cc1O | 3 µM
4.96 | 0.4 |  | Cc1ccc(OCC(=O)N(Cc2cccs2)C(C)(C)C)cc1 | 
5.70 | 2 |  | CCN(Cc1cccs1)C(=O)COc1ccc(C#N)cc1 | 
4.64 | 0.3 |  | Cc1ccc(OCC(=O)N(Cc2cccs2)C2COC2)cc1 | 
 |  | Not Active | CCN(Cc1cc[nH]n1)C(=O)COc1ccc(C)cc1 | 
 |  | Active | CCN(Cc1cn[nH]c1)C(=O)COc1ccc(C)cc1 | 
8.96 | 30900 |  | COc1ccc2oc(C(=O)N(Cc3cccs3)c3ccn[nH]3)cc2c1 | 5 µM
4.66 | 0.2 |  | CCN(Cc1cccs1)C(=O)COc1ccc(CO)cc1 | 

pEC50 [1] | Ratio EC50 [2] | EC50 [1] | Structure (SMILES) | Activity (Homo sapiens)
5.65 | 2 |  | Cc1ccc(OCC(=O)N(Cc2cccs2)c2nccs2)cc1 | 
 |  | Not Active | Cc1ccc(OC2CCN(Cc3cccs3)C2=O)cc1 (stereo unspecified) | 
5.85 | 4 |  | CCN(Cc1cccs1)C(=O)COc1ccccc1 | 
7.06 | 49 |  | CCN(Cc1ccsc1)C(=O)COc1ccc(C)cc1 | 5 µM
4.80 | 0.2 |  | CCN(Cc1ccccn1)C(=O)COc1ccc(C)cc1 | 
6.40 | 11 |  | COCCN(Cc1cccs1)C(=O)COc1ccc(C)cc1 | 
4.96 | 0.3 |  | CCN(Cc1cccs1)C(=O)C(C)(C)Oc1ccc(C)cc1 | 
 |  | Not Active | CCN(Cc1ccncc1)C(=O)COc1ccc(C)cc1 | 
 |  | Active | CCN1C(=O)C(Oc2ccc(C)cc2)C1c1cccs1 (stereo unspecified) | 
6.16 | 7 |  | CCN(Cc1cccs1)C(=O)COc1ccc2c(c1)CCCC2 | 
6.31 | 9 |  | CCN(Cc1ccco1)C(=O)COc1ccc(C)cc1 | 15 µM
4.81 | 0.2 |  | CCN(Cc1cccnc1)C(=O)COc1ccc(C)cc1 | 
5.75 | 3 |  | Cc1ccc(OCC(=O)N(Cc2cccs2)c2nccn2C)cc1 | 
 |  | Not Active | CCN(C(=O)COc1ccc(C)cc1)C(C)c1cccs1 (stereo unspecified) | 
8.43 |  |  | COc1ccc(OCC(=O)N(Cc2cccs2)c2cc[nH]n2)cc1 | 
7.41 | 93 |  | CCN(Cc1cccs1)C(=O)COc1ccc(Cl)cc1 | 
7.40 | > 1e+06 |  | Cc1ccc2oc(C(=O)N(Cc3cccs3)c3ccn[nH]3)cc2c1 | 4 µM
5.91 | 3 |  | Cc1ccc(OCC(=O)N(Cc2cccs2)c2cnccn2)cc1 | 
4.28 | 0.1 |  | CCN(Cc1cccs1)C(=O)C[C@H](O)c1ccccc1 | 
7.03 | 40 |  | CCN(Cc1cccs1)C(=O)CCc1ccc(C)cc1 | >5 µM
8.00 | 317 |  | CON(Cc1cccs1)C(=O)COc1ccc(C)cc1 | 
6.05 | 3 |  | Cc1ccc(OCC(=O)N(Cc2cccs2)CC(C)C)cc1 | 
 |  | Not Active | CCN(Cc1cccs1)C(=O)COc1ccc(C(=O)O)cc1 | 
5.96 | 4 |  | CCN(Cc1cncs1)C(=O)COc1ccc(C)cc1 | 

pEC50 [1] | Ratio EC50 [2] | EC50 [1] | Structure (SMILES) | Activity (Homo sapiens)
5.80 | 3 |  | CCN(Cc1cccs1)C(=O)c1cc2cc(C)ccc2s1 | 
9.52 | 14700 |  | Cc1ccc(OCC(=O)N(Cc2cccs2)c2c(C)n[nH]c2C)cc1 | 
9.22 | 6340 |  | O=C(COc1ccc2c(c1)OCO2)N(Cc1cccs1)c1ccn[nH]1 | 
4.67 | 0.3 |  | CCN(Cc1cccn1C)C(=O)COc1ccc(C)cc1 | 
5.74 | 3 |  | CCCc1ccc(OCC(=O)N(CC)Cc2cccs2)cc1 | 
 |  | Not Active | CCN(Cc1cccs1)C(=O)c1cc2cc(C)ccc2n1C | 
6.37 | 10 |  | CCN(Cc1cccs1)C(=O)COc1ccc(F)cc1 | 
7.28 | 77 |  | Cc1ccc(OCC(=O)N(Cc2cccs2)c2ccncc2)cc1 | 
6.07 | 13 |  | Cc1ccc(OCC(=O)N(Cc2cccs2)c2ccn(C)n2)cc1 | 
 | 1140 |  | COc1ccc(OCC(=O)N(Cc2cccs2)c2ccn[nH]2)cc1 | 5 µM
6.75 | 18 |  | CCN(Cc1ccc(C)s1)C(=O)COc1ccc(C)cc1 | 
5.73 | 2 |  | CCN(Cc1ccccc1)C(=O)COc1ccc(C)cc1 | 
7.15 | 66 |  | Cc1ccc(OCC(=O)N(Cc2cccs2)C(C)C)cc1 | 
5.70 | 2 |  | CCN(Cc1cccs1)C(=O)c1cc2cc(C)ccc2[nH]1 | 
6.40 | 15 |  | Cc1ccc(OCC(=O)N(C)Cc2cccs2)cc1 | 
5.10 | 0.4 |  | Cc1ccc(OCC(=O)N(O)Cc2cccs2)cc1 | 
6.05 | 5 |  | Cc1ccc(OCC(=O)N(CCO)Cc2cccs2)cc1 | 
4.40 | 0.1 |  | Cc1ccc(OCC(=O)N(Cc2cccs2)C2CCCCC2)cc1 | 
4.20 | 0.1 |  | Cc1ccc(OCC(=O)N(Cc2cccs2)c2cnn(C)c2)cc1 | 
5.43 | 1 |  | Cc1ccc(OCC(=O)N(Cc2cccs2)c2ncccn2)cc1 | 
5.52 | 1 |  | Cc1ccc(OCC(=O)N(CCCO)Cc2cccs2)cc1 | 
6.63 | 18 |  | CCN(Cc1cccs1)C(=O)COc1ccc(C(F)(F)F)cc1 | 
